Laboratory results published in paper PMC12362615, “Design, Synthesis, and Cellular Characterization of a New Class of IPMK Kinase Inhibitors” (Journal of Medicinal Chemistry, 2025).

Experiments:
PKCa = biological target: T1, PKCa (Homo sapiens, UniProt P17252); experiment: Protein kinase profiling, Mobility Shift Assay (Carna Biosciences); format: biochemical; conditions: read-out: % Inhibition at 1.0 μM 14
T1 construct: purchased Carna Biosciences
Method: (§1) Protein kinase profiling of compound 14 was executed by Carna Biosciences. Briefly, compound 14 was prepared by dissolving it in dimethyl sulfoxide (DMSO) and then further diluting it in DMSO to a concentration of […]. That stock solution was further diluted 25-fold with kinase assay buffer (20 mM HEPES, 0.01% Triton X-100, 2 mM DTT, pH 7.5) to make the final 1 μM compound 14 solution. Reference compounds for the assay controls were prepared similarly. The off-chip Mobility Shift Assay (MSA) was prepared with 5 μL of 4× compound solution, 5 μL of 4× substrate/ATP/metal solution, and 10 μL of 2× kinase solution, prepared with assay buffer (20 mM HEPES, 0.01% Triton X-100, 2 mM DTT, pH 7.5). The components were mixed and incubated in a polypropylene 384-well microplate for 1 h or 5 h at room temperature, depending on the kinase being tested. 60 μL of termination buffer (QuickScout Screening Assist MSA; Carna Biosciences) was added to the well to stop the reactions, and the mixture was applied to a LabChip3000 system (Caliper Life Sciences. The product and substrate peptide peaks were separated and quantitated. The kinase reactions were evaluated by the product ratio, calculated from the peak heights of the product (P) and substrate (S) peptides (P/(P + S)). Product ratio values for the control reaction were set as 0% inhibition, and the readout value of the background (no kinase added) was set as 100% inhibition. The percent inhibition of each test solution was then calculated as reported in Figure A. The phylogenetic tree was generated using KinMap at https://bmcbioinformatics.biomedcentral.com/articles/10.1186/s12859-016-1433-7.

JAK3 = biological target: T2, JAK3 (Homo sapiens, UniProt P52333); experiment: as above; format: biochemical; conditions: read-out: % Inhibition at 1.0 μM 14
T2 construct: purchased Carna Biosciences
Method: as §1

CDK2 = biological target: T3, CDK2 (Homo sapiens, UniProt P24941); experiment: as above; format: biochemical; conditions: read-out: % Inhibition at 1.0 μM 14
T3 construct: purchased Carna Biosciences
Method: as §1

CSK = biological target: T4, CSK (Homo sapiens, UniProt P41240); experiment: as above; format: biochemical; conditions: read-out: % Inhibition at 1.0 μM 14
T4 construct: purchased Carna Biosciences
Method: as §1

TRKA = biological target: T5, TRKA (Homo sapiens, UniProt P04629); experiment: as above; format: biochemical; conditions: read-out: % Inhibition at 1.0 μM 14
T5 construct: purchased Carna Biosciences
Method: as §1

EGFR = biological target: T6, EGFR (Homo sapiens, UniProt P00533); experiment: as above; format: biochemical; conditions: read-out: % Inhibition at 1.0 μM 14
T6 construct: purchased Carna Biosciences
Method: as §1

[1] = tested on: AKT phosphorylation in U251-MG glioblastoma cells; experiment: Western blots of phospho-AKT; format: cell-based, human; design: key to AKT P-Thr-308 signal intensity compared to DMSO / AKT P-Ser-473 signal intensity compared to DMSO: ns= not si gni fi cant by unpai r ed t -test
Method: About 3.5 × 10^6 U251 cells were seeded in 15 cm plates containing 30 mL of DMEM supplemented with 4.5 g/L D-glucose, L-glutamine, 10% FBS, 1% nonessential amino acids, and 1% penicillin–streptomycin (all from Thermo Fisher). […] Protein concentration was equalized using a Bradford assay, and samples were run on SDS-PAGE at 150 V for 1 h. Protein transfer was performed at 20 V for 1 h, membranes were blocked with 7 mL of EveryBlot blocking buffer (Bio-Rad) for 10 min. Primary antibodies used were AKT (#9272), Actin (#3700), and phospho-AKT (Ser473, #4060) at a 1:1000 dilution in EveryBlot blocking buffer, and phospho-AKT (Thr308, #13038) at a 1:400 dilution; all antibodies were from Cell Signaling Technology. After overnight incubation at 4 °C, membranes were washed and incubated with secondary antibodies (1:10,000 dilution for AKT, Actin, and P-AKT Ser473; 1:4000 for P-AKT Thr308) for 1 h. Detection was performed using Clarity Western ECL substrate (Bio-Rad) according to the manufacturer’s instructions and imaged using the Bio-Rad ChemiDoc system.

[2] = biological target: T7, purified recombinant human IP6K2 kinase domain (Homo sapiens, UniProt Q9UHH9); experiment: IP6K2 IC50 determination, malachite green Pi release assay; format: biochemical
T7 sequence (Q9UHH9 1-426): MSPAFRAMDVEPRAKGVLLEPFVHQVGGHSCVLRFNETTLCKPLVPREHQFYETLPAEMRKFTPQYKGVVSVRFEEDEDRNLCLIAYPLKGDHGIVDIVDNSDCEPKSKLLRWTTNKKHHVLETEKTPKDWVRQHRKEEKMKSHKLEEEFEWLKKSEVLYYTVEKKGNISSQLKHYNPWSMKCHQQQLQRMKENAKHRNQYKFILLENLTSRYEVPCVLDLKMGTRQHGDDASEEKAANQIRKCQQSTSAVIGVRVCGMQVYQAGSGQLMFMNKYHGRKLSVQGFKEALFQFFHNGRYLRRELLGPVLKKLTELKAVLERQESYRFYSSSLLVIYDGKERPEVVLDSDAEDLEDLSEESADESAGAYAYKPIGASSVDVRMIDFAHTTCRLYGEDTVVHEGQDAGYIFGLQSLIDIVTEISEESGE
Method: IP6K2 IC50 values were determined using the purified recombinant human IP6K2 kinase domain expressed in a 384-well clear polystyrene plate (VWR 82051-264). This human IP6K2 kinase domain (100 nM) was used at 37 °C in 50 μL reaction mixtures containing 5.0 μM human Dipp1, 50 mM Tris (pH 6.9), 10 mM MgCl2, 0.02% Triton X-100, 25 μM InsP6, and 50 μM ATP for 30 min. Pi release was determined with a malachite green colorimetric assay. Reactions were quenched by the addition of 12.5 μL of phosphate detection reagent (MAK3071KT, Sigma-Aldrich). Pi release was quantified from the absorbance at 620 nm by using appropriate standards.

T4 sequence (P41240 whole entry): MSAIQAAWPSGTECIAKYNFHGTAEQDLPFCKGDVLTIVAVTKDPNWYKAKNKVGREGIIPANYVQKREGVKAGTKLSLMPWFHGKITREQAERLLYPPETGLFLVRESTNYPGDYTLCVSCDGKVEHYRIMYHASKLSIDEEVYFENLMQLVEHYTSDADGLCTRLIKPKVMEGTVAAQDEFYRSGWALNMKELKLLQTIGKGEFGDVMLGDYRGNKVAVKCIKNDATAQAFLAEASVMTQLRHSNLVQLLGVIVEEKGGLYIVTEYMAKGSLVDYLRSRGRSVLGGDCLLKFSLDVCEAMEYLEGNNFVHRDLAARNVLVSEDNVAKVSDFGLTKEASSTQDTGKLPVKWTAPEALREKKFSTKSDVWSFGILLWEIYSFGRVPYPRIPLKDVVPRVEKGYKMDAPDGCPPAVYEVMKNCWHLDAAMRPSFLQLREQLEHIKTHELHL
T2 sequence (P52333 whole entry): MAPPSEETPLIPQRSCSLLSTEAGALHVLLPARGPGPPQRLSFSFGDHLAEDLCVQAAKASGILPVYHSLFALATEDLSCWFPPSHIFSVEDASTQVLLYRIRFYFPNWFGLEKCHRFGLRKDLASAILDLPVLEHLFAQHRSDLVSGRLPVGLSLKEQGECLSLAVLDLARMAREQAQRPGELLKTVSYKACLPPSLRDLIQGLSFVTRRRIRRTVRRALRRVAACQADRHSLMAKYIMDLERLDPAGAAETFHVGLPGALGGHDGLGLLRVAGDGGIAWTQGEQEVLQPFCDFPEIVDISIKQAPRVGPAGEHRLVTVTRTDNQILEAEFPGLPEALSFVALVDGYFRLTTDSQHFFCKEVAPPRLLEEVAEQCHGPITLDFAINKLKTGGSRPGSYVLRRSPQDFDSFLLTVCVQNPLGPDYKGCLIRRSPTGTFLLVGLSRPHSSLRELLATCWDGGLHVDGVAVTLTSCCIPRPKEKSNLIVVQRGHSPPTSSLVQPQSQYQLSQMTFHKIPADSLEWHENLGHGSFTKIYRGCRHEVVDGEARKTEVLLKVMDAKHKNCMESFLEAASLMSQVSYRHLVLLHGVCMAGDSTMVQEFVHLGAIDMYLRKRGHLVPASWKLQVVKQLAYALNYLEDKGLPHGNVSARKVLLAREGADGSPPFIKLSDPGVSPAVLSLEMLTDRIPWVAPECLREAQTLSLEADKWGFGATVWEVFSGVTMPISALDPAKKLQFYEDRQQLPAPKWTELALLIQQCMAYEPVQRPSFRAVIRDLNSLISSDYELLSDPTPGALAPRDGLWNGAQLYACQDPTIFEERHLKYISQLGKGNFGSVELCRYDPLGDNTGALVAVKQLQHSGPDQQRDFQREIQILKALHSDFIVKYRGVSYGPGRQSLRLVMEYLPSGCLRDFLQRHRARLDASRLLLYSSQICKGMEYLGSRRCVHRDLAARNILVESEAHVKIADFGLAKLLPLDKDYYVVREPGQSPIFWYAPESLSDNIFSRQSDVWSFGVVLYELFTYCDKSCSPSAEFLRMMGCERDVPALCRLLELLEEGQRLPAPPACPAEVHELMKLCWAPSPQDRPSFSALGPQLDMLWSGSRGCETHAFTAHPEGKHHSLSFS
T5 sequence (P04629 33-796): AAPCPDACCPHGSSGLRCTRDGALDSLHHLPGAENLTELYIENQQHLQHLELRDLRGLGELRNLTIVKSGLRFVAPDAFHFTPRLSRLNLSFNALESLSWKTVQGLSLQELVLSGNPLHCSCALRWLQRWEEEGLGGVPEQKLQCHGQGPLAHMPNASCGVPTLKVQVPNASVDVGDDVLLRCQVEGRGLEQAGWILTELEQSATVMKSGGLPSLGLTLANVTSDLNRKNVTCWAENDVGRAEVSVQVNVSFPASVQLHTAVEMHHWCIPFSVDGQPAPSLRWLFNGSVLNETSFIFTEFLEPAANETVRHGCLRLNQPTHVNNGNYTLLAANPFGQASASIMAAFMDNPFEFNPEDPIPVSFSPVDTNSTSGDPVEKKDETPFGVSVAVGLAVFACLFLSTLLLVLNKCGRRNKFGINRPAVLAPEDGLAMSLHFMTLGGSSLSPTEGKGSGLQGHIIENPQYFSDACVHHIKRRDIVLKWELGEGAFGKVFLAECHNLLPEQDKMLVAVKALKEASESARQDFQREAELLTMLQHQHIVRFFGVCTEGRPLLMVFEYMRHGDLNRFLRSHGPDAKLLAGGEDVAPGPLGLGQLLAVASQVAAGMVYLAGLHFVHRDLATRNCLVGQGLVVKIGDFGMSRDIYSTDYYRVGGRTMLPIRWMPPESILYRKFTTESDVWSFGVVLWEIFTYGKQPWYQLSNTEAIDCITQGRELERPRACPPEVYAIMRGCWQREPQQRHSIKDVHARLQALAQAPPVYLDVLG
T6 sequence (P00533 25-1210): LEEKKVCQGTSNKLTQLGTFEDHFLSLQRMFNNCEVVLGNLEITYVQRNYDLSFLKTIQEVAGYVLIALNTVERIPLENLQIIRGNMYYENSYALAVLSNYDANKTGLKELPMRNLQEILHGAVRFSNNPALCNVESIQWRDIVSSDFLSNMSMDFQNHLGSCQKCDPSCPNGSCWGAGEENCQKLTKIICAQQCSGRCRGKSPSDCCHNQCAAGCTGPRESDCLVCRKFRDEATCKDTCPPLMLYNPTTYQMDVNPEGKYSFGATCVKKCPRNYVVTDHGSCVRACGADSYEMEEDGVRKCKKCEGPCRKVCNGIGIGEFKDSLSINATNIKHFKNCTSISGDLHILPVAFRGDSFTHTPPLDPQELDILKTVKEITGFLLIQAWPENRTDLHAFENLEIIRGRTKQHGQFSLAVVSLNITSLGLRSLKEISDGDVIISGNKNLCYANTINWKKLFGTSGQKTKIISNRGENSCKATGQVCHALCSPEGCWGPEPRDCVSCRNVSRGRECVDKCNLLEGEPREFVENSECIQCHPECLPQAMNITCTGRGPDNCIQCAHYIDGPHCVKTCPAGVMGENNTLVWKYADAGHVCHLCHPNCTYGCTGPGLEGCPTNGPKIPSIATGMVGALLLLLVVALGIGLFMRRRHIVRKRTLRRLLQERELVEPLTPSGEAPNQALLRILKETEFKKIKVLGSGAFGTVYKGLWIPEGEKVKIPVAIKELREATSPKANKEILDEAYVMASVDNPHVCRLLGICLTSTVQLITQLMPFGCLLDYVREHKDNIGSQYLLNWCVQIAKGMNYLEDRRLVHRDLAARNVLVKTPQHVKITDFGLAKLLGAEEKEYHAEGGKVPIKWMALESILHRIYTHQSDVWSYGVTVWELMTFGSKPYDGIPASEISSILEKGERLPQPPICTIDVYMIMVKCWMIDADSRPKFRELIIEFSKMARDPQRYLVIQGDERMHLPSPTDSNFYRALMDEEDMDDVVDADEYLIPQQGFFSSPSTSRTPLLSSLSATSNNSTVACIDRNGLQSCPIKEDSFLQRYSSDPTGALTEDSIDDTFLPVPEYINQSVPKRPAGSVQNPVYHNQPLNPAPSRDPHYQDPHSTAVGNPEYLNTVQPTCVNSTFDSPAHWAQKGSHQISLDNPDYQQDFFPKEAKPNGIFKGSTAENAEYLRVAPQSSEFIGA

Q: c1cc(-c2onc3ccc(-c4nnn[nH]4)cc23)cc(C2CCN(C3CCC3)CC2)c1 [Compound 14, 3-(3-(1-Cyclobutylpiperidin-4-yl)phenyl)-5-(1H-tetrazol-5-yl)benzo[c]isoxazole] was tested. Which inhibition at 1 µM (PKCa) did it give?
A: Its inhibition at 1 µM is 59.6%.

Q: What about the inhibition at 1 µM (JAK3) of the same molecule?
A: The inhibition at 1 µM was 72.8%.

Q: What about the inhibition at 1 µM (CDK2) of the same molecule?
A: Its inhibition at 1 µM is 1.6%.

Q: What about the inhibition at 1 µM (CSK) of the same molecule?
A: Its inhibition at 1 µM is 5.5%.

Q: What about the inhibition at 1 µM (TRKA) of the same molecule?
A: The inhibition at 1 µM was 35.9%.

Q: What about the inhibition at 1 µM (EGFR) of the same molecule?
A: Its inhibition at 1 µM is 3.4%.

Q: And the “AKT P-Ser-473 signal intensity compared to DMSO” value ([1]; 10 μM)?
A: Its value is “ns”.

Q: And the “AKT P-Thr-308 signal intensity compared to DMSO” value ([1]; 10 μM)?
A: Its value is “ns”.

Q: What about the “AKT P-Ser-473 signal intensity compared to DMSO” value ([1]; 30 μM) of the same molecule?
A: Its value is “ns”.

Q: And the “AKT P-Thr-308 signal intensity compared to DMSO” value ([1]; 30 μM)?
A: The value was “ns”.

Q: And the “AKT P-Ser-473 signal intensity compared to DMSO” value ([1]; 50 μM)?
A: The value was “ns”.

Q: And the “AKT P-Thr-308 signal intensity compared to DMSO” value ([1]; 50 μM)?
A: The value was “ns”.

Q: And the “cytosolic AKT phosphorylation” value ([1]; after 48 h of treatment as printed in text)?
A: The value was “did not detect any changes”.

Q: What about the IP6K2/IPMK ([2]; Table S1, ratio of IC50 values) of the same molecule?
A: Its IP6K2/IPMK is 12.

Q: And the “selectivity for IPMK over IP6K2” value ([2]; from Table S1)?
A: Its value is 12 fold.

Q: And the IC50 ([2]; supplementary csv)?
A: The IC50 was 374 ± 159 nM.
